Measurements: patent publication US20030109486A1 (priority 2001, published 2003)
“Also recorded” adds a separate entry of the source. Like-named read-outs stand apart in the source and are kept apart here.

Tests used:
[1] = Solubility in isotonic aqueous solutions of sodium chloride; conditions: salts
SA + AV node = conditions: Cells/Organ; cited from earlier work
Airway mucosa [2] = conditions: Cells/Organ; cited from earlier work
Airway mucosa [3] = conditions: Patients, cited from earlier work; for Mucociliary clearance: epithelia of cystic fibrosis patients; for Chloride secretion: observed in epithelia of healthy participants and cystic fibrosis patients
Tumor [4] = conditions: Cells/Organ; cited from earlier work
Tumor [5] = conditions: Animals; cited from earlier work
Tumor [6] = conditions: Patients; cited from earlier work
[7] = Stability of ATP solutions; assay type: physicochemical
Procedure: An example of a clinical procedure in the treatment of ALI and ARDS is as follows. After determination of baseline, pre-treatment hemodynamic variables, blood gases and pH values, an ATP dose escalation procedure is initiated. ATP is provided as a sterile solution in single use vials. […] Storage of the clinical solution is at controlled refrigerated temperature (2° C.-8° C. ). […] The concentration of the final sterile solution for the infusion is 8 mg/ml.
The product must be stored at controlled refrigerated temperature (2° C.-[…]). At pH 6.7-7.2, the sodium salt in aqueous solution is stable.

[8] = Animals; cited from earlier work
[9] = Patients; cited from earlier work
[10] = Animals; cited from earlier work; remark: listed apart in the source
[11] = Patients; cited from earlier work; remark: listed apart in the source
[12] = Patients; cited from earlier work; remark: listed apart in the source
[13] = Cells/Organ; cited from earlier work
[14] = Animals; cited from earlier work; remark: listed apart in the source
[15] = Patients; cited from earlier work; remark: listed apart in the source
[16] = Cells/Organ; cited from earlier work; remark: listed apart in the source
[17] = intravenous, cited from earlier work
[18] = of seven children; infused directly into the pulmonary artery for 30 minutes to 30 hours; cited from earlier work
[19] = cited from earlier work; for whole blood ATP concentration, higher than the pretreatment values: 24 hr of infusion, average
[20] = tested on: non-small cell lung cancer; conditions: cited from earlier work
[21] = cited from earlier work
[22] = tested on: tissue type plasminogen activator (tPA); conditions: infusions in humans; cited from earlier work
[23] = low doses, intravenous; cited from earlier work
[24] = cited from earlier work; remark: listed apart in the source
[25] = intravenous; cited from earlier work
[26] = single arm study; cited from earlier work
[27] = in vivo; cited from earlier work
[28] = infusions; rat kidney, rat lung, dog heart, rabbit lung, rat gut; cited from earlier work
[29] = intramuscular; cited from earlier work
[30] = cited from earlier work; remark: listed apart in the source
[31] = ATP infusion rate 500-1000 μg/kg/min
[32] = ATP infusion rate ≦100 μg/kg/min
[33] = 50 or 65 microgram/kg/min for 96 hr, once every 4 weeks
[34] = administration directly into the pulmonary artery or into the superior vena cava
[35] = healthy individuals, COPD patients, patients after surgical repair of congenital heart defects

SMILES: Nc1ncnc2c1ncn2[C@@H]1O[C@H](COP(=O)(O)O)[C@@H](O)[C@H]1O [AMP, adenosine 5′-monophosphate]
- solubility in isotonic aqueous solutions of sodium chloride [1]: high solubility

SMILES: Nc1ncnc2c1ncn2[C@@H]1O[C@H](CO)[C@@H](O)[C@H]1O [adenosine, reference compound]
- SA + AV node conduction (SA + AV node): Inhibited
- Chloride secretion (Airway mucosa [2]): Increased
- Ciliary beat frequency (Airway mucosa [2]): Increased
- Mucus secretion (Airway mucosa [2]): Increased
- Surfactant secretion (Airway mucosa [2]): Increased
- Water secretion (Airway mucosa [2]): Increased
- Mucociliary clearance (Airway mucosa [3]): Increased
- Chloride secretion (Airway mucosa [3]): Increased
- Chemotherapy efficacy (Tumor [4]): Increased
- Radiotherapy damage (Tumor [4]): Reduced
- Radiotherapy efficacy (Tumor [4]): Increased
- Tumor growth (Tumor [4]): Inhibited
- Cancer treatment: Weight loss (Tumor [5]): Inhibited
- Chemotherapy efficacy (Tumor [5]): Increased
- Radiotherapy damage (Tumor [5]): Reduced
- Radiotherapy efficacy (Tumor [5]): Increased
- Radiotherapy survival rate (Tumor [5]): Increased
- Tumor growth (Tumor [5]): Inhibited
- Cancer treatment: Weight loss (Tumor [6]): Inhibited
- Tumor growth (Tumor [6]): Inhibited
- solubility in isotonic aqueous solutions of sodium chloride [1]: high solubility

SMILES: Nc1ncnc2c1ncn2[C@@H]1O[C@H](COP(=O)(O)OP(=O)(O)O)[C@@H](O)[C@H]1O [ADP, adenosine 5′-diphosphate]
- solubility in isotonic aqueous solutions of sodium chloride [1]: high solubility

SMILES: Nc1ncnc2c1ncn2[C@@H]1O[C@H](COP(=O)(O)OP(=O)(O)OP(=O)(O)O)[C@@H](O)[C@H]1O [ATP, adenosine 5′-triphosphate]
- stability of the final ATP solutions at room temperature ([7]; final infusion solution 8 mg/ml in 0.5 normal saline, room temperature): at least 96 hours
- stability of the sodium salt in aqueous solution ([7]; pH 6.7-7.2): stable
- Anaesthetic requirement [8]: Reduced
- Pain [8]: Reduced
- Anaesthetic requirement [9]: Reduced
- Blood pressure during surgery [9]: Reduced
- Opioid requirement after surgery [9]: Reduced
- Pain [9]: Reduced
- Pulmonary hypertension [10]: Reduced
- Pulmonary hypertension [11]: Reduced
- SA + AV node conduction (SA + AV node): Inhibited
- SA + AV node conduction [12]: Inhibited
- Supraventricular tachycardias [12]: Inhibited
- Shock: Organ function [13]: Improved
- Shock: Organ function [14]: Improved
- Shock: Survival rate [14]: Increased
- Shock: Survival rate [15]: Increased
- Chloride secretion (Airway mucosa [2]): Increased
- Ciliary beat frequency (Airway mucosa [2]): Increased
- Mucus secretion (Airway mucosa [2]): Increased
- Surfactant secretion (Airway mucosa [2]): Increased
- Water secretion (Airway mucosa [2]): Increased
- Mucociliary clearance (Airway mucosa [3]): Increased
- Chloride secretion (Airway mucosa [3]): Increased
- Glycogenolysis [16]: Increased
- Chemotherapy efficacy (Tumor [4]): Increased
- Radiotherapy damage (Tumor [4]): Reduced
- Radiotherapy efficacy (Tumor [4]): Increased
- Tumor growth (Tumor [4]): Inhibited
- Cancer treatment: Weight loss (Tumor [5]): Inhibited
- Chemotherapy efficacy (Tumor [5]): Increased
- Radiotherapy damage (Tumor [5]): Reduced
- Radiotherapy efficacy (Tumor [5]): Increased
- Radiotherapy survival rate (Tumor [5]): Increased
- Tumor growth (Tumor [5]): Inhibited
- Cancer treatment: Weight loss (Tumor [6]): Inhibited
- Tumor growth (Tumor [6]): Inhibited
- Cardiac Output [17, 31]: Increase
- Heart Rate [17, 31]: Increase
- Pulmonary Arterial Pressure [17, 31]: Decrease
- Pulmonary Vascular Resistance [17, 31]: Decrease
- Systemic Arterial Pressure [17, 31]: Decrease
- Systemic Vascular Resistance [17, 31]: Decrease
- Cardiac Output [17, 32]: Small Increase
- Heart Rate [17, 32]: No Change
- Pulmonary Arterial Pressure [17, 32]: Decrease
- Pulmonary Vascular Resistance [17, 32]: Decrease
- Systemic Arterial Pressure [17, 32]: did not alter; also recorded: No Change
- Systemic Vascular Resistance [17, 32]: Small Decrease
- children in whom hypertension crises were completely resolved and hemodynamic stability restored [18]: 4 children
- whole blood ATP concentration, higher than the pretreatment values ([19]; 50 microgram/kg/min): 63%
- whole blood ATP concentration, higher than the pretreatment values ([19]; 75 microgram/kg/min): 67%
- whole blood ATP concentration, higher than the pretreatment values ([19]; 100 microgram/kg/min): 113%
- blood concentrations of ATP between 24 and 96 hr of the infusion ([19]; in vivo): relatively constant or slightly declined
- hematologic, renal, hepatic, or gastrointestinal toxicity [20, 33]: No significant
- patients exhibiting stable disease after treatment [20, 33]: majority of patients
- tumor shrinking [20, 33]: no significant
- overall survival ([20]; as compared with historical data): beneficial effects
- patient performance status ([20]; in vivo): beneficial effects
- weight gain ([20]; in vivo): beneficial effects
- severity of adverse experiences ([21]; 30-hr infusions, 20 up to 75 microgram/kg/min): generally mild
- Quality of Life domains ([21]; in vivo): improvements
- body weight ([21]; in vivo): beneficial effects
- electrocardiograms in patients with chest discomfort ([21]; in vivo): did not exhibit changes suggestive of myocardial ischemia
- time to resolution of all side effects after lowering the rate of ATP infusion ([21]; in vivo): within minutes
- voluntary muscle strength ([21]; in vivo): beneficial effects
- release of tissue-type plasminogen activator (tPA) [22]: profound acute release; also recorded: marked release
- resolving pulmonary hypertension [23]: effective
- Pulmonary Arterial Pressure [24, 34]: reducing
- Pulmonary Vascular Resistance [24, 34]: reducing
- Systemic Arterial Pressure [24, 34]: without any direct effect
- Systemic Vascular Resistance [24, 34]: without any direct effect
- Pulmonary Arterial Pressure [24, 35]: significantly decreasing
- Pulmonary Vascular Resistance [24, 35]: significantly decreasing
- Cardiac Output [25]: enhances
- portal and total hepatic blood flow [25]: enhances
- renal and hepatic microcirculation [25]: enhances
- several metabolic functions [26]: beneficial
- survival [27]: significant positive effects
- tissue injury during reperfusion after a preceding period of ischemia [28]: protective effects
- protecting the intestinal mucosal structure and function [29]: effective
- maximum tolerated dose ([30]; 96-hr infusions, advanced non-small cell lung cancer): 50 microgram/kg/min
- highest dose easily tolerated ([30]; patients suffering from other cancers): 100 microgram/kg/min
